Drawing on US20250109118A1, “HETEROCYCLIC COMPOUNDS AS SHP2 INHIBITORS, COMPOSITIONS COMPRISING THE HETEROCYCLIC COMPOUND, AND METHODS OF USE THEREOF” (JS INNOMED HOLDINGS LTD., priority 2021, published 2025), this text covers IC50 for 21 compounds.

A value given as a limit tells only on which side of the number the result lay.

In experiment [1] the test system is MiaPaCa-2 cells. The experiment in a line: MiaPaCa-2 Cell proliferation assay in 3D culture (CCK8). The conditions noted are these: Homo sapiens, MIA PaCa-2, 120 h; 3D spheroid culture, 5 days with compound, CCK8 readout. The class given is cell-based. The essentials:
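Cells grown as spheroids (2500/well, ultra-low attachment, 10% FBS) for 24 h, then exposed 5 days to ten 3-fold compound dilutions at 0.1% DMSO. Viability by CCK8/WST-8, 1.5 h at 37 °C, absorbance 450 nm; IC50 from triplicates.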

For experiment [2], the target named is T1, SHP2 (PTPN11/SHP2-FL) (Homo sapiens, UniProt Q06124).
T1 construct: SHP2 (PTPN11/SHP2-FL, RBC produced, no cat #); purchased RBC no cat #
T1 sequence (Q06124 1-593): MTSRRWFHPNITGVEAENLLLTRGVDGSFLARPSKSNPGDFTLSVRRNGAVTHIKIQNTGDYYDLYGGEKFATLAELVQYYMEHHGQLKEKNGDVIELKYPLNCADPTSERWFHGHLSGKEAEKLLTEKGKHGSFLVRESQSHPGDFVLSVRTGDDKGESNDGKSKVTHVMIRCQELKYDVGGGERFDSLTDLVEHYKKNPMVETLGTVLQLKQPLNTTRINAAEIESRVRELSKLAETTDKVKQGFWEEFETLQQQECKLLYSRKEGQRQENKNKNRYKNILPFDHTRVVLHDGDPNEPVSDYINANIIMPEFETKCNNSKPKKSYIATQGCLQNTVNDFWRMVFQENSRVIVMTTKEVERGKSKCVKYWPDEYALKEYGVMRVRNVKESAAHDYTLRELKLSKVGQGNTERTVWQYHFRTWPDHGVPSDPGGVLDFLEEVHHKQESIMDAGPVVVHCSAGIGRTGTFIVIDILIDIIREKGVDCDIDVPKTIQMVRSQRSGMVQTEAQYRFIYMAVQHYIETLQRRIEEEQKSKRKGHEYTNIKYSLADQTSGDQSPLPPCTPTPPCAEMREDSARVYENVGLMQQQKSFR
The experiment in a line: SHP2 biochemical assay (DiFMUP prompt fluorescence). The settings on record: 0.5 nM SHP2, 0.35 μM activating peptide, DiFMUP 100 μM; read-out: SHP2 bichemical activity (IC50). The method, then:
SHP2 is allosterically activated through binding of bis-tyro syiphorphorylated peptides to its Src Homology 2 (SH2) domains. The latter activation step leads to the release of the auto-inhibitory interface of SHP2, which in turn renders the SHP2 PTP active and available for substrate recognition and reaction catalysis. The catalytic activity of SHP2 was monitored using the surrogate substrate DiFMUP in a prompt fluorescence assay format. Specifically, the phosphatase reactions were performed at room temperature in 384-well black polystyrene plate, flat bottom, low flange, non-binding surface (Corning, Cat #3575) using a final reaction volume of 20 μL and the following assay buffer conditions: 60 mM HEPES, pH 7.2, 75 mM NaCl, 75 mM KCl, 1 mM EDTA, 0.01% Brij-35, 5 mM DTT, and 10% DMSO (final). The inhibition of SHP2 from the tested compounds (final concentrations varying from 0.003-100 μM) was monitored using an assay in which 0.5 nM of SHP2 (PTPN11/SHP2-FL, RBC produced, no cat #) was incubated with 0.35 μM of the peptide H2NLN(pY)IDLDLV(dPEG8)LST(pY)ASINFQK-amide. After 20 minutes of incubation at room temperature, the surrogate substrate DiFMUP (6,8-difluoro-7-hydroxy-4-methylcoumarin, Invitrogen, cat #D6567, 100 μM final concentration) was added to the reaction. The fluorescence signal was monitored using a microplate reader (Envision, Perkin-Elmer) using excitation and emission wavelengths of 355 nm and 460 nm, respectively. The inhibitor dose response curves were analyzed using normalized IC50 regression curve fitting with control based normalization.
The IC50 values of for Compounds disclosed are listed in Table 2, A: ≤10 nM; B: >10 nM and ≤100 nM; C: >100 nM and ≤1 uM; and D: >1 μM.

One may read the IC50 as the concentration needed to halve the response being measured. In the case of `CC1(CN)CCN(c2cnc(Sc3cccc(C(=O)NS(=O)(=O)c4ccccn4)c3Cl)c(N)n2)CC1` [Example 35, 3-((3-amino-5-(4-(aminomethyl)-4-methylpiperidin-1-yl)pyrazin-2-yl)thio)-2-chloro-N-(pyridin-2-ylsulfonyl)benzamide], the IC50 was not above 500 nM in experiment [1] and not above 10 nM in experiment [2].
For `CC1(N)CCN(c2cnc(Sc3cccc(NC(=O)NS(=O)(=O)c4ccccc4)c3Cl)c(N)n2)CC1` [Example 4, N-((3-((3-amino-5-(4-amino-4-methylpiperidin-1-yl)pyrazin-2-yl)thio)-2-chlorophenyl)carbamoyl)benzenesulfonamide] the same measures were not above 500 nM and not above 10 nM.
Consider `CC1(CN)CCN(c2cnc(Sc3cccc(C(=O)NS(=O)(=O)C4CCCC4)c3Cl)cn2)CC1` [Example 30, 3-((5-(4-(aminomethyl)-4-methylpiperidin-1-yl)pyrazin-2-yl)thio)-2-chloro-N-(cyclopentylsulfonyl)benzamide], for which the IC50 in experiment [1] is 500 to 5000 nM; in experiment [2] it was not above 10 nM.
For `CC1(N)CCN(c2cnc(Sc3cccc(S(=O)(=O)NC(=O)c4ccccc4)c3Cl)cn2)CC1` [Example 33, N-((3-((5-(4-amino-4-methylpiperidin-1-yl)pyrazin-2-yl)thio)-2-chlorophenyl)sulfonyl)benzamide] the same measures were not above 500 nM and 10 to 100 nM.
For `CC1(N)CCN(c2cnc(Sc3cccc(S(=O)(=O)NC(=O)c4ccccc4)c3Cl)c(N)n2)CC1` [Example 8, N-((3-((3-amino-5-(4-amino-4-methylpiperidin-1-yl)pyrazin-2-yl)thio)-2-chlorophenyl)sulfonyl)benzamide] the same measures were 5000 to 50000 nM and 10 to 100 nM.
For `CC1(CN)CCN(c2cnc(Sc3cccc(C(=O)NS(=O)(=O)c4ccccc4)c3Cl)cn2)CC1` [Example 21, 3-((5-(4-(aminomethyl)-4-methylpiperidin-1-yl)pyrazin-2-yl)thio)-2-chloro-N-(phenylsulfonyl)benzamide] the same measures were not above 500 nM and not above 10 nM.
In the case of `CC1(CN)CCN(c2cnc(Sc3cccc(NC(=O)NS(=O)(=O)c4ccccc4)c3Cl)cn2)CC1` [Example 2, N-((3-((5-(4-(aminomethyl)-4-methylpiperidin-1-yl)pyrazin-2-yl)thio)-2-chlorophenyl)carbamoyl)benzenesulfonamide], the IC50 in experiment [1] is not above 500 nM; in experiment [2], not above 10 nM.
As for `CC1(N)CCN(c2cnc(Sc3cccc(C(=O)NS(=O)(=O)C4CC4)c3Cl)cn2)CC1` [Example 18, 3-((5-(4-amino-4-methylpiperidin-1-yl)pyrazin-2-yl)thio)-2-chloro-N-(cyclopropylsulfonyl)benzamide], the figures for the IC50 in experiment [1] and in experiment [2] were 5000 to 50000 nM and 10 to 100 nM, respectively.
The matching figures for `CC1(CN)CCN(c2cnc(Sc3cccc(C(=O)NS(=O)(=O)C4CCCCC4)c3Cl)cn2)CC1` [Example 27, 3-((5-(4-(aminomethyl)-4-methylpiperidin-1-yl)pyrazin-2-yl)thio)-2-chloro-N-(cyclohexylsulfonyl)benzamide]: not above 500 nM and not above 10 nM.
The matching figures for `CC1(CN)CCN(c2cnc(Sc3cccc(NC(=O)NS(=O)(=O)c4ccncc4)c3Cl)c(N)n2)CC1` [Example 41, N-((3-((3-amino-5-(4-(aminomethyl)-4-methylpiperidin-1-yl)pyrazin-2-yl)thio)-2-chlorophenyl)carbamoyl)pyridine-4-sulfonamide]: 5000 to 50000 nM and not above 10 nM.
Regarding `CC1(CN)CCN(c2cnc(Sc3cccc(C(=O)NS(=O)(=O)c4cccnc4)c3Cl)c(N)n2)CC1` [Example 38, 3-((3-amino-5-(4-(aminomethyl)-4-methylpiperidin-1-yl)pyrazin-2-yl)thio)-2-chloro-N-(pyridin-3-ylsulfonyl)benzamide], the concentration for half-maximal inhibition (IC50) was 500 to 5000 nM in experiment [1] and not above 10 nM in experiment [2].
For `CC1(CN)CCN(c2cnc(Sc3cccc(C(=O)NS(=O)(=O)c4ccccc4)c3Cl)c(N)n2)CC1` [Example 5, 3-((3-amino-5-(4-(aminomethyl)-4-methylpiperidin-1-yl)pyrazin-2-yl)thio)-2-chloro-N-(phenylsulfonyl)benzamide] the same measures were not above 500 nM and not above 10 nM.
Regarding `CC1(CN)CCN(c2cnc(Sc3cccc(NC(=O)NS(=O)(=O)C4CCCC4)c3Cl)c(N)n2)CC1` [Example 42, N-((3-((3-amino-5-(4-(aminomethyl)-4-methylpiperidin-1-yl)pyrazin-2-yl)thio)-2-chlorophenyl)carbamoyl)cyclopentanesulfonamide], the IC50 was not above 500 nM in experiment [1] and not above 10 nM in experiment [2].
The matching figures for `CC1(CN)CCN(c2cnc(Sc3cccc(NC(=O)NS(=O)(=O)C4CC4)c3Cl)cn2)CC1` [Example 32, N-((3-((5-(4-(aminomethyl)-4-methylpiperidin-1-yl)pyrazin-2-yl)thio)-2-chlorophenyl)carbamoyl)cyclopropanesulfonamide]: not above 500 nM and not above 10 nM.
The matching figures for `CC1(CN)CCN(c2cnc(Sc3cccc(C(=O)NS(=O)(=O)C4CC4)c3Cl)cn2)CC1` [Example 25, 3-((5-(4-(aminomethyl)-4-methylpiperidin-1-yl)pyrazin-2-yl)thio)-2-chloro-N-(cyclopropylsulfonyl)benzamide]: not above 500 nM and not above 10 nM.
For `CC1(CN)CCN(c2cnc(Sc3cccc(C(=O)NS(=O)(=O)c4ccccn4)c3Cl)cn2)CC1` [Example 22, 3-((5-(4-(aminomethyl)-4-methylpiperidin-1-yl)pyrazin-2-yl)thio)-2-chloro-N-(pyridin-2-ylsulfonyl)benzamide] the same measures were not above 500 nM and not above 10 nM.
`CC1(CN)CCN(c2cnc(Sc3cccc(NC(=O)NS(C)(=O)=O)c3Cl)c(N)n2)CC1` [Example 40, N-((3-((3-amino-5-(4-(aminomethyl)-4-methylpiperidin-1-yl)pyrazin-2-yl)thio)-2-chlorophenyl)carbamoyl)methanesulfonamide]: the figures for the half-inhibitory concentration (IC50) in experiment [1] and in experiment [2] were not above 500 nM and not above 10 nM, respectively.
As to `CC1(CN)CCN(c2cnc(Sc3cccc(C(=O)NS(C)(=O)=O)c3Cl)c(N)n2)CC1` [Example 37, 3-((3-amino-5-(4-(aminomethyl)-4-methylpiperidin-1-yl)pyrazin-2-yl)thio)-2-chloro-N-(methylsulfonyl)benzamide], the IC50 was 5000 to 50000 nM in experiment [1] and 10 to 100 nM in experiment [2].
For `CC1(CN)CCN(c2cnc(Sc3cccc(C(=O)NS(=O)(=O)c4ccncc4)c3Cl)cn2)CC1` [Example 28, 3-((5-(4-(aminomethyl)-4-methylpiperidin-1-yl)pyrazin-2-yl)thio)-2-chloro-N-(pyridin-4-ylsulfonyl)benzamide] the same measures were 500 to 5000 nM and not above 10 nM.
For `CC1(CN)CCN(c2cnc(Sc3cccc(C(=O)NS(=O)(=O)c4ccccc4F)c3Cl)c(N)n2)CC1` [Example 34, 3-((3-amino-5-(4-(aminomethyl)-4-methylpiperidin-1-yl)pyrazin-2-yl)thio)-2-chloro-N-((2-fluorophenyl)sulfonyl)benzamide] the same measures were 500 to 5000 nM and not above 10 nM.
For `CC1(N)CCN(c2cnc(Sc3cccc(NC(=O)NS(=O)(=O)c4ccccc4)c3Cl)cn2)CC1` [Example 1, N-((3-((5-(4-amino-4-methylpiperidin-1-yl)pyrazin-2-yl)thio)-2-chlorophenyl)carbamoyl)benzenesulfonamide] the same measures were not above 500 nM and 10 to 100 nM.
